Reference: patent US9938281B2 (Merck Sharp & Dohme Corp., priority 2012, dated 2018)

Tests used:
PI3K-delta = molecular target: T1, PI3K-delta (Homo sapiens, UniProt O00329); experiment: HTRF PI3K biochemical assay, delta isoform; conditions: form screened (neutral or TFA salt) given, read-out: PI3Kdelta IC50
T1 construct: purchased Upstate; Millipore 14-604
Description: HTRF PI3K Biochemical Assay to Measure Intrinsic Potency of Compound Inhibitors
This assay was developed and further optimized from a kit produced by Upstate (Millipore catalog #33-047) and has been configured for HTS and SAR screening. Briefly, this procedure exploits the exquisite specificity and high affinity binding of enzyme reaction substrate phosphatidyl(3,4,5)triphosphate (PIP3) to the GRP1 pleckstrin homology (PH) domain to generate the signal. In the absence of PIP3, an HTRF (Homogeneous Time-Resolved Fluorescence energy transfer) complex is formed consisting of europium (Eu)-labeled anti-GST, GSTtagged GRP1-PH domain, biotin-PIP3 and streptavidin conjugated APC. The native PIP3 produced by PI3-Kinase activity disrupts in a competitive manner the biotin-PIP3 from the PH domain, resulting in the loss of energy transfer (HTRF complex) and a decrease in the signal. The format of this assay is the same for all 4 isoforms of PI3K; the differences lie in the concentration of enzyme used to achieve robust assay window. The alpha, beta, and delta assays are run at 0.5, 1, and 0.3 nM enzymes and the gamma assay is run at 5 nM enzyme. The ATP concentration is 100 uM in the alpha, beta, and delta assays and 50 uM ATP in the gamma assay. All reactions are run at 5 uM PIP2.
(§1) Compounds are serially diluted (3-fold in 100% DMSO) across a 384-well polypropylene source plated from column 3 to column 12 and column 13 to column 22, to yield 10 concentration dose response for each test compound. Columns 1, 2, 23 and 24 contain either only DMSO or pharmacological known control inhibitor.
(§2) The PI3-Kinase biochemical assay was optimized using the HTRF kit provided by Upstate (Millipore). The assay kit contains six reagents: 1) 4× Reaction Buffer; 2) native PIP2 (substrate); 3) Stop (EDTA); 4) Detection Mix A (Streptavidin-APC); 5) Detection Mix B (Eu-labeled Anti-GST plus GST-tagged PH-domain); 6) Detection Mix C.
(§3) PI3Kinase Reaction Buffer is prepared by dilution the stock 1:4 with de-ionized water. […] Enzyme addition and compound pre-incubation are initiated by the addition of 1.25 ul of PI3K (at twice its final concentration) in the 1× reaction buffer to all wells using a BioRaptor. Plates are incubated at room temperature for 15 minutes. Reactions are initiated by addition of 1.25 ul of 2× substrate solution (PIP2 and ATP in 1× reaction buffer) using BioRaptor. Plates are incubated in humidified chamber at room temperature for one hour. Reactions are quenched by addition of 0.625 uL of stop solution to all wells using the BioRaptor. The quenched reactions are then processed to detect product formation by adding 0.625 uL of Detection Solution to all wells using the BioRaptor (Detection mix C, Detection Mix A, and Detection Mix B combined together in an 18:1:1 ratio prepared 2 hours prior to use).
(§4) The loss of the HTRF signal is due to the displacement of biotinylated-PIP3 from the PH domain by the PI3K-dependent conversion of PIP2 to PIP3. This loss of signal is nonlinear with respect to both increasing product and time. This non-linear detection will impact accuracy of IC50 calculations; therefore, there is a need for a correction factor to obtain more accurate IC50 values. This correction is derived from a PIP3 standard curve run in a separate assay plate. All data were calculated using the ratio of acceptor (APC) to donor (Europium) fluorescence in each well of the assay plate. […] An IC50 was then calculated fitting the % inhibition data to the equation: % inhibition=min+(Max−min)/1+([inhibitor]/IC50)^n) where min is the % inhibition with inhibitor, max is the signal in DMSO control, and n is the Hill slope.

PI3K-alpha = molecular target: T2, PI3K-alpha (Homo sapiens, UniProt P42336); experiment: HTRF PI3K biochemical assay, alpha isoform; conditions: ratio PI3K-alpha IC50 value / PI3K-delta IC50 value
T2 construct: purchased Upstate; Millipore 14-602
T2 sequence (P42336 whole entry, canonical isoform): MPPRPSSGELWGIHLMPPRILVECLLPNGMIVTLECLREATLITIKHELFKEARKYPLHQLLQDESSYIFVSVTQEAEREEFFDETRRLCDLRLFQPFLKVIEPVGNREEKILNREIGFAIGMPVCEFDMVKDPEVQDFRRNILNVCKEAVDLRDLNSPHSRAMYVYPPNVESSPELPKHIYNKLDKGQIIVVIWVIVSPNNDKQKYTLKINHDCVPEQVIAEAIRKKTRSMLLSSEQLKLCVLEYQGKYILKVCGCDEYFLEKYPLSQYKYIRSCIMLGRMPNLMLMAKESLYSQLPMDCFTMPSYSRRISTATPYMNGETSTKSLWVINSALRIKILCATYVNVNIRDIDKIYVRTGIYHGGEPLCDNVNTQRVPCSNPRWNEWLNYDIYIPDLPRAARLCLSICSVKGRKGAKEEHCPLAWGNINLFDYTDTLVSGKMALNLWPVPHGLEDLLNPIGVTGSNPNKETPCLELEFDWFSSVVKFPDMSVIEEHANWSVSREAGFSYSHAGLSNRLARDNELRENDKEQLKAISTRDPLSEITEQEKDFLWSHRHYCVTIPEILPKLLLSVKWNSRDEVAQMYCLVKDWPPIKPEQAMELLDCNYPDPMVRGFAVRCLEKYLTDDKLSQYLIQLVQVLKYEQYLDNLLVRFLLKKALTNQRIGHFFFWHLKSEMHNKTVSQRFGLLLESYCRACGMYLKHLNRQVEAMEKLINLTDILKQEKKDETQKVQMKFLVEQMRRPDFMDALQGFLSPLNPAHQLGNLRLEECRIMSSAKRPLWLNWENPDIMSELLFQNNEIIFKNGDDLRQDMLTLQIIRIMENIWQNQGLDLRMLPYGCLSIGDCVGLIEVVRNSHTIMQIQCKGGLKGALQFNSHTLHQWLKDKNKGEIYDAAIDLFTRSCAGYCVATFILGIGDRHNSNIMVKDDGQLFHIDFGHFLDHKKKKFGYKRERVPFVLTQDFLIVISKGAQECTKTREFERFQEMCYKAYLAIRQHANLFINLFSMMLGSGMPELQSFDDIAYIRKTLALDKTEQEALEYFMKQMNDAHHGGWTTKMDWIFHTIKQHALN
T2 sequence (P27986 whole entry partner, canonical isoform): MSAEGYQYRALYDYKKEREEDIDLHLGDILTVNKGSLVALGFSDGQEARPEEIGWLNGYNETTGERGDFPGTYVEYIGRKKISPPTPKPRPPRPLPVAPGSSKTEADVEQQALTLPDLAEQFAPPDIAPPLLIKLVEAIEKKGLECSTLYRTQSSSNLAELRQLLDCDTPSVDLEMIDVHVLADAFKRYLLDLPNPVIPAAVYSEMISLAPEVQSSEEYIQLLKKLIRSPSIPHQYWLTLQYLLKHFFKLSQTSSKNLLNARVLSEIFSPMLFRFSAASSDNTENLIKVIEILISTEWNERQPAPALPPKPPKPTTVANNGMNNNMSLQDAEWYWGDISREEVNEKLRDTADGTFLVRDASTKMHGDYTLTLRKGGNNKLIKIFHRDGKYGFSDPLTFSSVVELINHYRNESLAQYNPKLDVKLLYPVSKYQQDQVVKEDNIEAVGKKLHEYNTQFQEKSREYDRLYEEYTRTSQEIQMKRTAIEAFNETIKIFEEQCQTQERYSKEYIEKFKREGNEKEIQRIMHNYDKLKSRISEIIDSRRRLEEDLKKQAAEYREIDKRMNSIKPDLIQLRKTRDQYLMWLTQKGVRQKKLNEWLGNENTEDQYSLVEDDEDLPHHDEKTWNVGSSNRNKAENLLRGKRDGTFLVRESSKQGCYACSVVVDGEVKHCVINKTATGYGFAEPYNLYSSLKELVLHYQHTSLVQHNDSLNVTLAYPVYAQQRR
Description: The PI3-Kinase biochemical assays were developed to measure the intrinsic potency and compound dependent inhibition of the alpha, beta, delta, and gamma PI3K isoform enzymes. This assay was developed and further optimized from a kit produced by Upstate (Millipore catalog #33-047) and has been configured for HTS and SAR screening. Briefly, this procedure exploits the exquisite specificity and high affinity binding of enzyme reaction substrate phosphatidyl(3,4,5)triphosphate (PIP3) to the GRP1 pleckstrin homology (PH) domain to generate the signal. In the absence of PIP3, an HTRF (Homogeneous Time-Resolved Fluorescence energy transfer) complex is formed consisting of europium (Eu)-labeled anti-GST, GSTtagged GRP1-PH domain, biotin-PIP3 and streptavidin conjugated APC. The native PIP3 produced by PI3-Kinase activity disrupts in a competitive manner the biotin-PIP3 from the PH domain, resulting in the loss of energy transfer (HTRF complex) and a decrease in the signal. The format of this assay is the same for all 4 isoforms of PI3K; the differences lie in the concentration of enzyme used to achieve robust assay window. The alpha, beta, and delta assays are run at 0.5, 1, and 0.3 nM enzymes and the gamma assay is run at 5 nM enzyme. The ATP concentration is 100 uM in the alpha, beta, and delta assays and 50 uM ATP in the gamma assay. All reactions are run at 5 uM PIP2.
as §1, §2, §3, §4
The determination of relative selectivity for a given compound is defined as the relative ratio of the (PI3K-alphalC50 value/PI3K-delta IC50 value).

T1 sequence (O00329 whole entry, canonical isoform): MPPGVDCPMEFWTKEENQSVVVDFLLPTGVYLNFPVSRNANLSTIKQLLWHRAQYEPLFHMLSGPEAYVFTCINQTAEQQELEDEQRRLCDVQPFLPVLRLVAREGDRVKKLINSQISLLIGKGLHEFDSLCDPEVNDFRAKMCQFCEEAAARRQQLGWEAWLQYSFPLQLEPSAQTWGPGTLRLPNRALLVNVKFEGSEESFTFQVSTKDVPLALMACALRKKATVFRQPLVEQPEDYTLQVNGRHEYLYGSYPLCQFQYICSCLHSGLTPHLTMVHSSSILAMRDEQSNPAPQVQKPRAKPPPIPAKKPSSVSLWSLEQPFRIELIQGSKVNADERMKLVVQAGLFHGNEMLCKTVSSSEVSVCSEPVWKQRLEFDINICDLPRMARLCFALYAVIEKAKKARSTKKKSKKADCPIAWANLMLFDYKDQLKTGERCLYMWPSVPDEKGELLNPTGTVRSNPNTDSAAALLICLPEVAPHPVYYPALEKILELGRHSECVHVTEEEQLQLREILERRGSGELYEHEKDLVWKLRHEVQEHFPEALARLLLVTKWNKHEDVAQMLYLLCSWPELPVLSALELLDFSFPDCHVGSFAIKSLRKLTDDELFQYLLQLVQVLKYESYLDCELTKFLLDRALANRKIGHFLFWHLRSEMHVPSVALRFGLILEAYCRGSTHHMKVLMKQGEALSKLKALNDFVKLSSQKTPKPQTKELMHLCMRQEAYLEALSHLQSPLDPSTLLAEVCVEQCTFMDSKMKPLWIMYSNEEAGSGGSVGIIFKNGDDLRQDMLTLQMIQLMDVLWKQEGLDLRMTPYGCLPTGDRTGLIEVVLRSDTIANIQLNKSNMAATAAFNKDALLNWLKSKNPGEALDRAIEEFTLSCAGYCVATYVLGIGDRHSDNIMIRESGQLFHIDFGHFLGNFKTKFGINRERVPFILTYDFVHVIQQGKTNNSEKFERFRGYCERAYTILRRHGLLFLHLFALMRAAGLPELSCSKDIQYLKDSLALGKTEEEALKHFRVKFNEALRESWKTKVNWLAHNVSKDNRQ
T1 sequence (P27986 whole entry partner, canonical isoform): as the sequence (P27986 whole entry partner, canonical isoform) above

CCn1c(C(F)F)nc2c(N[C@H]3CCN(C(=O)[C@H]4C[C@H](OC)C4)C3)ncnc21 [Compound 7-17, 8-(difluoromethyl)-9-ethyl-N-{(3S)-1-[(trans-3-methoxycyclobutyl)carbonyl]pyrrolidin-3-yl}-9H-purin-6-amine]
IC50 (PI3K-delta): 0.074 µM
Selectivity versus PI3Kalpha (PI3K-alpha): >10

CCn1c(C(F)F)nc2c(N[C@H]3CCN(C(=O)[C@H]4C[C@@H](OC)C4)C3)ncnc21 [Compound 7-18, 8-(difluoromethyl)-9-ethyl-N-{(3S)-1-[(cis-3-methoxycyclobutyl)carbonyl]pyrrolidin-3-yl}-9H-purin-6-amine]
IC50 (PI3K-delta): 0.011 µM
Selectivity versus PI3Kalpha (PI3K-alpha): >10

CCn1c(C(F)F)nc2c(N[C@H]3CCN(C(=O)[C@H]4CCCN4C)C3)ncnc21 [Compound 7-19, 8-(difluoromethyl)-9-ethyl-N-[(3S)-1-(1-methyl-D-prolyl)pyrrolidin-3-yl]-9H-purin-6-amine]
IC50 (PI3K-delta): 0.38 µM
Selectivity versus PI3Kalpha (PI3K-alpha): >10

CCn1c(CCOC)nc2c(N[C@H]3CCN(C(=O)C4CC4)C3)ncnc21 [Compound 7-22, N-[(3S)-1-(cyclopropylcarbonyl)pyrrolidin-3-yl]-9-ethyl-8-(2-methoxyethyl)-9H-purin-6-amine]
IC50 (PI3K-delta): 0.23 µM
Selectivity versus PI3Kalpha (PI3K-alpha): >10

CCc1nc2c(N[C@H]3CCN(C(=O)C4CC4)C3)ncnc2n1CC [Compound 7-23, N-[(3S)-1-(cyclopropylcarbonyl)pyrrolidin-3-yl]-8,9-diethyl-9H-purin-6-amine]
IC50 (PI3K-delta): 0.12 µM
Selectivity versus PI3Kalpha (PI3K-alpha): >10

CCn1c(C(C)(C)C)nc2c(N[C@H]3CCN(C(=O)C4CC4)C3)ncnc21 [Compound 7-24, 8-tert-butyl-N-[(3S)-1-(cyclopropylcarbonyl)pyrrolidin-3-yl]-9-ethyl-9H-purin-6-amine]
IC50 (PI3K-delta): 0.15 µM
Selectivity versus PI3Kalpha (PI3K-alpha): >10

CCn1c(CC2CN(S(C)(=O)=O)C2)nc2c(N[C@H]3CCN(C(=O)C4CC4)C3)ncnc21 [Compound 7-25, N-[(3S)-1-(cyclopropylcarbonyl)pyrrolidin-3-yl]-9-ethyl-8-{[1-(methylsulfonyl)azetidin-3-yl]methyl}-9H-purin-6-amine]
IC50 (PI3K-delta): 0.1 µM
Selectivity versus PI3Kalpha (PI3K-alpha): >10

CCn1c(C(F)F)nc2c(N[C@H]3CCN(c4ccccn4)C3)ncnc21 [Compound 7-26, 8-(difluoromethyl)-9-ethyl-N-[(3S)-1-pyridin-2-ylpyrrolidin-3-yl]-9H-purin-6-amine]
IC50 (PI3K-delta): 0.028 µM
Selectivity versus PI3Kalpha (PI3K-alpha): >10

CCn1c(C(F)F)nc2c(N[C@H]3CCN(C(=O)N4CCC4)C3)ncnc21 [Compound 7-27, N-[(3S)-1-(azetidin-1-ylcarbonyl)pyrrolidin-3-yl]-8-(difluoromethyl)-9-ethyl-9H-purin-6-amine]
IC50 (PI3K-delta): 0.0052 µM
Selectivity versus PI3Kalpha (PI3K-alpha): >10

CCn1c(C(F)F)nc2c(N[C@H]3CCN(C(=O)N4CC(OC)C4)C3)ncnc21 [Compound 7-28, 8-(difluoromethyl)-9-ethyl-N-{(3S)-1-[(3-methoxyazetidin-1-yl)carbonyl]pyrrolidin-3-yl}-9H-purin-6-amine]
IC50 (PI3K-delta): 0.0032 µM
Selectivity versus PI3Kalpha (PI3K-alpha): >10

CCn1c(N2CC[C@@H](O)C2)nc2c(N[C@H]3CCN(C(=O)C4CC4)C3)ncnc21 [Compound 8-1, (3R)-1-(6-{[(3S)-1-(cyclopropylcarbonyl)pyrrolidin-3-yl]amino}-9-ethyl-9H-purin-8-yl)pyrrolidin-3-ol]
IC50 (PI3K-delta): 0.51 µM
Selectivity versus PI3Kalpha (PI3K-alpha): >10

CCn1c(-n2cnc3ccccc32)nc2c(N[C@H]3CCN(C(=O)C4CC4)C3)ncnc21 [Compound 8-2, 8-(1H-benzimidazol-1-yl)-N-[(3S)-1-(cyclopropylcarbonyl)pyrrolidin-3-yl]-9-ethyl-9H-purin-6-amine]
IC50 (PI3K-delta): < 0.001 µM
Selectivity versus PI3Kalpha (PI3K-alpha): >10

CCn1c(-n2cnc(C(F)(F)F)c2)nc2c(N[C@H]3CCN(C(=O)C4CC4)C3)ncnc21 [Compound 8-3, N-[(3S)-1-(cyclopropylcarbonyl)pyrrolidin-3-yl]-9-ethyl-8-[4-(trifluoromethyl)-1H-imidazol-1-yl]-9H-purin-6-amine]
IC50 (PI3K-delta): 0.011 µM
Selectivity versus PI3Kalpha (PI3K-alpha): >10

CCn1c(N(C)CC(C)C)nc2c(N[C@H]3CCN(C(=O)C4CC4)C3)ncnc21 [Compound 8-4, cyclopropyl[(3S)-3-({9-ethyl-8-[methyl(2-methylpropyl)amino]-9H-purin-6-yl}amino)pyrrolidin-1-yl]methanone]
IC50 (PI3K-delta): 0.1 µM
Selectivity versus PI3Kalpha (PI3K-alpha): >10

CCn1c(Oc2ccccc2)nc2c(N[C@H]3CCN(C(=O)C4CC4)C3)ncnc21 [Compound 8-5, N-[(3S)-1-(cyclopropylcarbonyl)pyrrolidin-3-yl]-9-ethyl-8-phenoxy-9H-purin-6-amine]
IC50 (PI3K-delta): 0.023 µM
Selectivity versus PI3Kalpha (PI3K-alpha): >10

CCn1c(Oc2ccc(OC)c(F)c2)nc2c(N[C@H]3CCN(C(=O)C4CC4)C3)ncnc21 [Compound 8-6, N-[(3S)-1-(cyclopropylcarbonyl)pyrrolidin-3-yl]-9-ethyl-8-(3-fluoro-4-methoxyphenoxy)-9H-purin-6-amine]
IC50 (PI3K-delta): 0.0082 µM
Selectivity versus PI3Kalpha (PI3K-alpha): >10

CCn1c(OC(C)C)nc2c(N[C@H]3CCN(C(=O)C4CC4)C3)ncnc21 [Compound 8-7, N-[(3S)-1-(cyclopropylcarbonyl)pyrrolidin-3-yl]-9-ethyl-8-(1-methylethoxy)-9H-purin-6-amine]
IC50 (PI3K-delta): 0.035 µM
Selectivity versus PI3Kalpha (PI3K-alpha): >10

CCn1c(-n2cnc3c2CCCC3)nc2c(N[C@H]3CCN(C(=O)C4CC4)C3)ncnc21 [Compound 8-8, N-[(3S)-1-(cyclopropylcarbonyl)pyrrolidin-3-yl]-9-ethyl-8-(4,5,6,7-tetrahydro-1H-benzimidazol-1-yl)-9H-purin-6-amine]
IC50 (PI3K-delta): < 0.001 µM
Selectivity versus PI3Kalpha (PI3K-alpha): >10

CCCn1c(-c2cnn(CC)c2C)nc2c(N[C@H]3CCN(C(=O)CC)C3)ncnc21 [Compound 9-1, 8-(1-ethyl-5-methyl-1H-pyrazol-4-yl)-N-[(3S)-1-propanoylpyrrolidin-3-yl]-9-propyl-9H-purin-6-amine]
IC50 (PI3K-delta): 0.02 µM
Selectivity versus PI3Kalpha (PI3K-alpha): >10

CCCn1c(-c2cnc(C)nc2)nc2c(N[C@H]3CCN(C(=O)CC)C3)ncnc21 [Compound 9-2, 8-(2-methylpyrimidin-5-yl)-N-[(3S)-1-propanoylpyrrolidin-3-yl]-9-propyl-9H-purin-6-amine]
IC50 (PI3K-delta): 0.036 µM
Selectivity versus PI3Kalpha (PI3K-alpha): >10

CCC(=O)N1CC[C@H](Nc2ncnc3c2nc(-c2cnn(CC)c2C)n3CC2CC2)C1 [Compound 9-3, 9-(cyclopropylmethyl)-8-(1-ethyl-5-methyl-1H-pyrazol-4-yl)-N-[(3S)-1-propanoylpyrrolidin-3-yl]-9H-purin-6-amine]
IC50 (PI3K-delta): 0.067 µM
Selectivity versus PI3Kalpha (PI3K-alpha): >10

CCC(=O)N1CC[C@H](Nc2ncnc3c2nc(-c2cnn(CC)c2C)n3CC(F)F)C1 [Compound 9-4, 9-(2,2-difluoroethyl)-8-(1-ethyl-5-methyl-1H-pyrazol-4-yl)-N-[(3S)-1-propanoylpyrrolidin-3-yl]-9H-purin-6-amine]
IC50 (PI3K-delta): < 0.001 µM
Selectivity versus PI3Kalpha (PI3K-alpha): >10

Cc1ncc(-c2nc3c(N[C@H]4CCN(C(=O)C5CC5)C4)ncnc3n2CC(F)(F)F)cn1 [Compound 9-5, N-[(3S)-1-(cyclopropylcarbonyl)pyrrolidin-3-yl]-8-(2-methylpyrimidin-5-yl)-9-(2,2,2-trifluoroethyl)-9H-purin-6-amine]
IC50 (PI3K-delta): 0.58 µM
Selectivity versus PI3Kalpha (PI3K-alpha): >10

CCCN1CC[C@H](Nc2ncnc3c2nc(-c2cnn(CC)c2C)n3C)C1 [Compound 10-1, 8-(1-ethyl-5-methyl-1H-pyrazol-4-yl)-9-methyl-N-[(3S)-1-propylpyrrolidin-3-yl]-9H-purin-6-amine]
IC50 (PI3K-delta): 0.042 µM
Selectivity versus PI3Kalpha (PI3K-alpha): >10

CCn1c(-c2cnc(C)nc2)nc2c(NC3CN(C(C)C4CC4)CC34CC4)ncnc21 (centres unmarked) [Compound 10-2, N(S AND R)-[5-(1-(S AND R)-cyclopropylethyl)-5-azaspiro[2.4]hept-7-yl]-9-ethyl-8-(2-methylpyrimidin-5-yl)-9H-purin-6-amine]
IC50 (PI3K-delta): 0.041 µM
Selectivity versus PI3Kalpha (PI3K-alpha): >10

CCn1c(-c2cnc(C)nc2)nc2c(NC3CN(C(C)C)CC34CC4)ncnc21 (centres unmarked) [Compound 10-3, (R AND S)-9-ethyl-N-[5-(1-methylethyl)-5-azaspiro[2.4]hept-7-yl]-8-(2-methylpyrimidin-5-yl)-9H-purin-6-amine]
IC50 (PI3K-delta): 0.096 µM
Selectivity versus PI3Kalpha (PI3K-alpha): >10

CCn1ncc(-c2nc3c(N[C@H]4CCCN(S(=O)(=O)CC)C4)ncnc3n2C)c1C [Compound 11-1, 8-(1-ethyl-5-methyl-1H-pyrazol-4-yl)-N-[(3S)-1-(ethylsulfonyl)piperidin-3-yl]-9-methyl-9H-purin-6-amine]
IC50 (PI3K-delta): 0.0074 µM
Selectivity versus PI3Kalpha (PI3K-alpha): >10

CCNC(=O)N1CCC[C@H](Nc2ncnc3c2nc(-c2cnn(CC)c2C)n3C)C1 [Compound 12-1, (3S)-N-ethyl-3-{[8-(1-ethyl-5-methyl-1H-pyrazol-4-yl)-9-methyl-9H-purin-6-yl]amino}piperidine-1-carboxamide]
IC50 (PI3K-delta): 0.03 µM
Selectivity versus PI3Kalpha (PI3K-alpha): >10

CCn1c(-c2cnc(C)nc2)nc2c(N[C@H]3CCN(C(=O)NCCOC)C3)ncnc21 [Compound 12-2, (3S)-3-{[9-ethyl-8-(2-methylpyrimidin-5-yl)-9H-purin-6-yl]amino}-N-(2-methoxyethyl)pyrrolidine-1-carboxamide]
IC50 (PI3K-delta): 0.0089 µM
Selectivity versus PI3Kalpha (PI3K-alpha): >10

CCn1c(-c2cnc(C)nc2)nc2c(N[C@H]3CCN(C(=O)N4CCOCC4)C3)ncnc21 [Compound 12-4, 9-ethyl-8-(2-methylpyrimidin-5-yl)-N-[(3S)-1-(morpholin-4-ylcarbonyl)pyrrolidin-3-yl]-9H-purin-6-amine]
IC50 (PI3K-delta): 0.0045 µM
Selectivity versus PI3Kalpha (PI3K-alpha): >10

CCn1c(-c2cnc(C)nc2)nc2c(N[C@H]3CCN(C(=O)N4CCCCC4)C3)ncnc21 [Compound 12-5, 9-ethyl-8-(2-methylpyrimidin-5-yl)-N-[(3S)-1-(piperidin-1-ylcarbonyl)pyrrolidin-3-yl]-9H-purin-6-amine]
IC50 (PI3K-delta): 0.0012 µM
Selectivity versus PI3Kalpha (PI3K-alpha): >10
